Experiments:
[1] = target: T1, CdAlr (C. difficile alanine racemase; CdAlrWT) (Clostridioides difficile, UniProt Q180W0); assay: X-ray crystal structure, […] A; type: binding; settings: covalent; internal aldimine with Lys39
T1 construct: gene alr2; monomer 43306 Da, homodimer; WT preparation partly cleaved at position 271 (fragments 1-271 and 272-382)

[2] = target: T1, CdAlr (C. difficile alanine racemase; CdAlrWT); assay: X-ray co-crystal structure, […] A; type: binding; settings: covalent; adduct with PLP (DCS) in the active site; 100 mM cycloserine

T1 sequence (Q180W0 entry or part of it): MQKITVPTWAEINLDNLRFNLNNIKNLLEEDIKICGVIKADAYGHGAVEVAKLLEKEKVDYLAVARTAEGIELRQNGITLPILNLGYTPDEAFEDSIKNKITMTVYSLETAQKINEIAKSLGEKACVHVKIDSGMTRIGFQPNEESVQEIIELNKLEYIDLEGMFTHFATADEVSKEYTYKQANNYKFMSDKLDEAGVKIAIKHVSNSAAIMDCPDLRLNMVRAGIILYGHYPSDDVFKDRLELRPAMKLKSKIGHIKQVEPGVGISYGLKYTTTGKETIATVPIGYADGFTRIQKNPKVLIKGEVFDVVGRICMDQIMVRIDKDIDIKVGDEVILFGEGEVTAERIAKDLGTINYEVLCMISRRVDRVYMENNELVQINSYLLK

Row | Compound | X-ray crystal structure, 2.10 A [1] | X-ray co-crystal structure, 2.26 A [2]
1 | Cc1ncc(COP(=O)(O)O)c(C=O)c1O [PLP] | Two structures (CdAlrK271T and CdAlrPLP) contain the cofactor PLP | 
2 | N[C@@H]1CONC1=O [cycloserine] |  | In the CdAlrcycloserine structure, cycloserine forms a covalent adduct with PLP

— paper PMC4089486, “Structural and biochemical analyses of alanine racemase from the multidrug-resistant Clostridium difficile strain 630” (Acta Crystallographica Section D: Biological Crystallography, 2014)
